Test results taken from patent US10414763B2 (CANCER RESEARCH TECHNOLOGY LIMITED, priority 2014, dated 2019).

Molecular target: T1, full-length human PKCι (Homo sapiens, UniProt P41743)
T1 construct: Recombinant, full-length human PKCι expressed in Sf21 insect cells is also commercially available; purchased EMD Millipore; host or cells: Sf21 insect cells (baculovirus)
T1 sequence (P41743 1-596): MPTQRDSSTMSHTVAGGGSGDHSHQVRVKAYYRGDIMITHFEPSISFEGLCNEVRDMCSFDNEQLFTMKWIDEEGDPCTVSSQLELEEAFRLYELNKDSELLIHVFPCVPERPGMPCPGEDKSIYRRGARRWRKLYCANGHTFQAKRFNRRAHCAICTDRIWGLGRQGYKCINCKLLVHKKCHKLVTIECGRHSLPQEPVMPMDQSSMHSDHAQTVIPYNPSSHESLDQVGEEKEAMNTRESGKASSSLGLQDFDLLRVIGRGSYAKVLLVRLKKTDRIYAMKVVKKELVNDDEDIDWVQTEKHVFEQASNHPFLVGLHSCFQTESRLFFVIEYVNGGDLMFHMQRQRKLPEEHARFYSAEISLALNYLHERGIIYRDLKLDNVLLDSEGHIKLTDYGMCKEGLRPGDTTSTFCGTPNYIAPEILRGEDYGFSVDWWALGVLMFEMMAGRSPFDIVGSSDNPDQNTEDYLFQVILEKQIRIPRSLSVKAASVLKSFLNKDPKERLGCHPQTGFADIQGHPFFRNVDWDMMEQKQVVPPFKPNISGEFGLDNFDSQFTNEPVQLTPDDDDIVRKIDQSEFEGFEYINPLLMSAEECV
Experiment: PKCι IC50 IMAP fluorescence polarisation assay, full-length enzyme, 150 μM ATP
Format: biochemical
Conditions: read-out: IC50 in IMAP assay against full length PKCi at 150 μM ATP
Summary of the method: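 IMAP fluorescence polarisation kinase assay: 15 pM baculovirus-expressed human PKCiota with 100 nM FAM-pseudosubstrate peptide and 150 μM ATP, 1 h at 25 °C. IMAP detection reagent then 2 h at 25 °C before FP measurement. Inhibition referenced to no-compound and no-enzyme controls for IC50 fitting.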

How did the IC50 turn out when `C[C@@H]1CNCC[C@@H]1Nc1nc(-c2ccnc(Nc3nc(F)cc(F)c3F)c2)nc2cncc(C3CCC3)c12` (racemic) [Example 295, {5-Cyclobutyl-2-[2-(3,4,6-trifluoro-pyridin-2-ylamino)-pyridin-4-yl]-pyrido[3,4-d]pyrimidin-4-yl}-(rac-(3R,4S)-3-methyl-piperidin-4-yl)-amine] was run?
Its IC50 is < 100 nM.

`O[C@@H]1CNCC[C@H]1Nc1nc(-c2ccnc(Nc3nc(F)cc(F)c3F)c2)nc2cncc(C3CCC3)c12` (racemic) [Example 296, rac-(3R,4R)-4-{5-Cyclobutyl-2-[2-(3,4,6-trifluoro-pyridin-2-ylamino)-pyridin-4-yl]-pyrido[3,4-d]pyrimidin-4-ylamino}-piperidin-3-ol] was tested. Which IC50 did it give?
The IC50 was < 100 nM.

Which IC50 does the source give for `C[C@@H]1CNCC[C@@H]1Nc1nc(-c2ccnc(Nc3ncccc3F)c2)nc2cncc(C3CC3)c12` (racemic) [Example 299, {5-Cyclopropyl-2-[2-(3-fluoro-pyridin-2-ylamino)-pyridin-4-yl]-pyrido[3,4-d]pyrimidin-4-yl}-(rac-(3R,4S)-3-methyl-piperidin-4-yl)-amine] here?
The IC50 was 100 to 1000 nM.

Which IC50 does the source give for `C[C@@H]1CNCC[C@@H]1Nc1nc(-c2ccnc(Nc3ncc(F)cc3F)c2)nc2cncc(C3CC3)c12` (racemic) [Example 300, {5-Cyclopropyl-2-[2-(3,5-difluoro-pyridin-2-ylamino)-pyridiri-4-yl]-pyrido[3,4-d]pyrimidin-4-yl}-(rac-(3R,4S)-3-methyl-piperidin-4-yl)-amine] here?
The IC50 was 100 to 1000 nM.

For `C[C@@H]1CNCC[C@@H]1Nc1nc(-c2ccnc(Nc3nc(F)cc(F)c3F)c2)nc2cncc(C3CC3)c12` (racemic) [Example 301, {5-Cyclopropyl-2-[2-(3,4,6-trifluoro-pyridin-2-ylamino)-pyridin-4-yl]-pyrido[3,4-d]pyrimidin-4-yl}-(rac-(3R,4S)-3-methyl-piperidin-4-yl)-amine], which IC50 is on record?
The IC50 was < 100 nM.

How did the IC50 turn out when `C[C@@H]1CNCC[C@H]1Nc1nc(-c2ccnc(Nc3ncccc3F)c2)nc2cncc(C3CC3)c12` (racemic) [Example 302, {5-Cyclopropyl-2-[2-(3-fluoro-pyridin-2-ylamino)-pyridin-4-yl]-pyrido[3,4-d]pyrimidin-4-yl}-(rac-(3R,4R)-3-methyl-piperidin-4-yl)-amine] was run?
Its IC50 is < 100 nM.

`C[C@@H]1CNCC[C@H]1Nc1nc(-c2ccnc(Nc3ncc(F)cc3F)c2)nc2cncc(C3CC3)c12` (racemic) [Example 303, {5-Cyclopropyl-2-[2-(3,5-difluoro-pyridin-2-ylamino)-pyridin-4-yl]-pyrido[3,4-d]pyrimidin-4-yl}-(rac-(3R,4R)-3-methyl-piperidin-4-yl)-amine] was tested. Which IC50 did it give?
The IC50 was < 100 nM.

Which IC50 does the source give for `C[C@@H]1CNCC[C@H]1Nc1nc(-c2ccnc(Nc3nc(F)cc(F)c3F)c2)nc2cncc(C3CC3)c12` (racemic) [Example 304, {5-Cyclopropyl-2-[2-(3,4,6-trifluoro-pyridin-2-ylamino)-pyridin-4-yl]-pyrido[3,4-d]pyrimidin-4-yl}-(rac-(3R,4R)-3-methyl-piperidin-4-yl)-amine] here?
The IC50 was < 100 nM.

`O[C@H]1CNCC[C@H]1Nc1nc(-c2ccnc(Nc3ncccc3F)c2)nc2cncc(C3CC3)c12` (racemic) [Example 305, rac-(3S,4R)-4-{5-Cyclopropyl-2-[2-(3-fluoro-pyridin-2-ylamino)-pyridin-4-yl]-pyrido[3,4-d]pyrimidin-4-ylamino}-piperidin-3-ol] was tested. Which IC50 did it give?
Its IC50 is 100 to 1000 nM.

With `O[C@H]1CNCC[C@H]1Nc1nc(-c2ccnc(Nc3ncc(F)cc3F)c2)nc2cncc(C3CC3)c12` (racemic) [Example 306, rac-(3S,4R)-4-{5-Cyclopropyl-2-[2-(3,5-difluoro-pyridin-2-ylamino)-pyridin-4-yl]-pyrido[3,4-d]pyrimidin-4-ylamino}-piperidin-3-ol] as the molecule, how does the IC50 read?
Its IC50 is 100 to 1000 nM.

Which IC50 does the source give for `O[C@H]1CNCC[C@H]1Nc1nc(-c2ccnc(Nc3nc(F)cc(F)c3F)c2)nc2cncc(C3CC3)c12` (racemic) [Example 307, rac-(3S,4R)-4-{5-Cyclopropyl-2-[2-(3,4,6-trifluoro-pyridin-2-ylamino)-pyridin-4-yl]-pyrido[3,4-d]pyrimidin-4-ylamino}-piperidin-3-ol] here?
The IC50 was < 100 nM.

Which IC50 does the source give for `O[C@@H]1CNCC[C@H]1Nc1nc(-c2ccnc(Nc3ncccc3F)c2)nc2cncc(C3CC3)c12` (racemic) [Example 308, rac-(3R,4R)-4-{5-Cyclopropyl-2-[2-(3-fluoro-pyridin-2-ylamino)-pyridin-4-yl]-pyrido[3,4-d]pyrimidin-4-ylamino}-piperidin-3-ol] here?
Its IC50 is 100 to 1000 nM.

How did the IC50 turn out when `O[C@@H]1CNCC[C@H]1Nc1nc(-c2ccnc(Nc3ncc(F)cc3F)c2)nc2cncc(C3CC3)c12` (racemic) [Example 309, rac-(3R,4R)-4-{5-Cyclopropyl-2-[2-(3,5-difluoro-pyridin-2-ylamino)-pyridin-4-yl]-pyrido[3,4-d]pyrimidin-4-ylamino}-piperidin-3-ol] was run?
The IC50 was < 100 nM.

Which IC50 does the source give for `O[C@@H]1CNCC[C@H]1Nc1nc(-c2ccnc(Nc3nc(F)cc(F)c3F)c2)nc2cncc(C3CC3)c12` (racemic) [Example 310, rac-(3R,4R)-4-{5-Cyclopropyl-2-[2-(3,4,6-trifluoro-pyridin-2-ylamino)-pyridin-4-yl]-pyrido[3,4-d]pyrimidin-4-ylamino}-piperidin-3-ol] here?
The IC50 was < 100 nM.

With `Cc1nc(Nc2cc(-c3nc(N[C@H]4CCNC[C@H]4C)c4c(C5CCC5)cncc4n3)ccn2)ccc1C#N` (racemic) [Example 311, 6-{4-[5-Cyclobutyl-4-(rac-(3R,4S)-3-methyl-piperidin-4-ylamino)-pyrido[3,4-d]pyrimidin-2-yl]-pyridin-2-ylamino}-2-methyl-nicotinonitrile] as the molecule, how does the IC50 read?
The IC50 was < 100 nM.

`Cc1nc(Nc2cc(-c3nc(N[C@@H]4CCNC[C@H]4C)c4c(C5CCC5)cncc4n3)ccn2)ccc1C#N` (racemic) [Example 312, 6-{4-[5-Cyclobutyl-4-(rac-(3R,4R)-3-methyl-piperidin-4-ylamino)-pyrido[3,4-d]pyrimidin-2-yl]-pyridin-2-ylamino}-2-methyl-nicotinonitrile] was tested. Which IC50 did it give?
The IC50 was < 100 nM.

How did the IC50 turn out when `Cc1nc(Nc2cc(-c3nc(N[C@@H]4CCNC[C@@H]4O)c4c(C5CCC5)cncc4n3)ccn2)ccc1C#N` (racemic) [Example 313, 6-{4-[5-Cyclobutyl-4-(rac-(3S,4R)-3-hydroxy-piperidin-4-ylamino)-pyrido[3,4-d]pyrimidin-2-yl]-pyridin-2-ylamino}-2-methyl-nicotinonitrile] was run?
Its IC50 is < 100 nM.

Which IC50 does the source give for `Cc1nc(Nc2cc(-c3nc(N[C@@H]4CCNC[C@H]4O)c4c(C5CCC5)cncc4n3)ccn2)ccc1C#N` (racemic) [Example 314, 6-{4-[5-Cyclobutyl-4-(rac-(3R,4R)-3-hydroxy-piperidin-4-ylamino)-pyrido[3,4-d]pyrimidin-2-yl]-pyridin-2-ylamino}-2-methyl-nicotinonitrile] here?
Its IC50 is < 100 nM.

Which IC50 does the source give for `N[C@@H]1CN(c2nc(-c3ccnc4[nH]c5ccccc5c34)nc3cncc(C4CCC4)c23)C[C@H]1O` (racemic) [Example 343, rac-(3R,4R)-4-Amino-1-[5-cyclobutyl-2-(9H-pyrido[2,3-b]indol-4-yl)-pyrido[3,4-d]pyrimidin-4-yl]-pyrrolidin-3-ol] here?
Its IC50 is 100 to 1000 nM.

`O[C@H]1CNCC[C@H]1Nc1nc(-c2ccnc3[nH]c4ccccc4c23)nc2cncc(C3CCC3)c12` (racemic) [Example 344, rac-(3S,4R)-4-[5-Cyclobutyl-2-(9H-pyrido[2,3-b]indol-4-yl)-pyrido[3,4-d]pyrimidin-4-ylamino]-piperidin-3-ol] was tested. Which IC50 did it give?
Its IC50 is < 100 nM.

How did the IC50 turn out when `O[C@@H]1CNCC[C@H]1Nc1nc(-c2ccnc3[nH]c4ccccc4c23)nc2cncc(C3CCC3)c12` (racemic) [Example 345, rac-(3R,4R)-4-[5-Cyclobutyl-2-(9H-pyrido[2,3-b]indol-4-yl)-pyrido[3,4-d]pyrimidin-4-ylamino]-piperidin-3-ol] was run?
The IC50 was < 100 nM.

How did the IC50 turn out when `C[C@@H]1CNCC[C@H]1Nc1nc(-c2ccnc3[nH]c4ccccc4c23)nc2cncc(C3CCC3)c12` (racemic) [Example 346, [5-Cyclobutyl-2-(9H-pyrido[2,3-b]indol-4-yl)-pyrido[3,4-d]pyrimidin-4-yl]-(rac-(3R,4R)-3-methyl-piperidin-4-yl)-amine] was run?
Its IC50 is < 100 nM.

Which IC50 does the source give for `C[C@H]1CNCC[C@H]1Nc1nc(-c2ccnc3[nH]c4ccccc4c23)nc2cncc(C3CCC3)c12` (racemic) [Example 347, [5-Cyclobutyl-2-(9H-pyrido[2,3-b]indol-4-yl)-pyrido[3,4-d]pyrimidin-4-yl]-(rac-(3S,4R)-3-methyl-piperidin-4-yl)-amine] here?
Its IC50 is < 100 nM.

With `O[C@H]1CNCC[C@H]1Nc1nc(-c2ccnc3[nH]c4ccccc4c23)nc2cncc(C(F)(F)F)c12` (racemic) [Example 349, rac-(3S,4R)-4-[2-(9H-Pyrido[2,3-b]indol-4-yl)-5-trifluoromethyl-pyrido[3,4-d]pyrimidin-4-ylamino]-piperidin-3-ol] as the molecule, how does the IC50 read?
Its IC50 is 100 to 1000 nM.

With `O[C@@H]1CNCC[C@H]1Nc1nc(-c2ccnc3[nH]c4ccccc4c23)nc2cncc(C(F)(F)F)c12` (racemic) [Example 350, rac-(3R,4R)-4-[2-(9H-Pyrido[2,3-b]indol-4-yl)-5-trifluoromethyl-pyrido[3,4-d]pyrimidin-4-ylamino]-piperidin-3-ol] as the molecule, how does the IC50 read?
Its IC50 is < 100 nM.
